Experimental data reported in publication PMC9157788, “Design, Synthesis, and Apoptosis-Promoting Effect Evaluation of Rhopaladins’ Analog 4-Arylidene-5-Oxopyrrolidine Derivatives” (Frontiers in Chemistry, 2022).
Where two headings read alike, the source gives them in different places.

What was measured:
[1] = test system: C-33A cells; test: MTT cell viability assay, C-33A; type: cell-based; conditions: Homo sapiens, 48 h, read-out: Half inhibitory concentration (IC50), C-33A
Description: (§1) HepG2 (human epidermoid hepatocellular carcinoma cell), 7402 (human epidermoid hepatocellular carcinoma cell), C-33A (human epidermoid cervical carcinoma cell), and HeLa (human epidermoid cervical adenocarcinoma cell) were incubated in Dulbecco’s modified Eagle’s medium (DMEM), which was purchased from Gibco (Grand Island, NY, United States). SiHa cells (human epidermoid cervical squamous cell carcinoma) were incubated in minimum essential medium (MEM, also from Gibco). CaSki (human epidermoid cervical carcinoma cell) and LO2 (human normal liver cell) were incubated in minimum essential medium (MEM, also from Gibco). All cells were maintained at 37°C in a humidified incubator with 5% carbon dioxide, and the media contained 10% fetal bovine serum (FBS, Corning, United States) and 1% penicillin–streptomycin antibiotic solution (Corning, United States). SiHa and CaSki were bought from the China Center for Type Culture Collection (CCTCC). The other five types of cancer cell lines were obtained from the Experiment Center of Medicine, Sinopharm Dongfeng Hospital, Hubei University of Medicine. The compounds were dissolved in dimethyl sulfoxide (DMSO, MP Biomedicals, United States), and cisplatin was purchased from Aladdin, Shanghai, China. The control (0 μM) group was treated with DMSO only in the same conditions, and the DMSO content in the medium was less than 0.1%.
(§2) Cell viability was measured by a 3-(4,5-dimethylthiazol-2-yl)-2,5-diphenyltetrazolium bromide (MTT, MultiSciences, China) assay. The specific experimental steps referred to our previous research ([Zhu et al., 2020]). For each cell line, cells were digested and seeded in 96-well plates at a density of 1 × 10^3 cells/well. […] Then, the formed formazan crystals were dissolved in DMSO, and the plates were estimated in a […] microplate reader (BioTek Inc., Bio-Tek MQX200) at a wavelength of 490 nm. Optical density (OD) values were obtained, and the inhibition rate and IC50 of each compound on different cells were calculated by GraphPad Prism 8.0.1 software. […]

[2] = test system: CaSki cells; test: MTT cell viability assay, CaSki; type: cell-based; conditions: Homo sapiens, Ca-Ski, 48 h, read-out: Half inhibitory concentration (IC50), CaSki
Description: as §1, §2

[3] = test system: SiHa cells; test: MTT cell viability assay, SiHa; type: cell-based; conditions: Homo sapiens, 48 h, read-out: Half inhibitory concentration (IC50), SiHa
Description: as §1, §2

[4] = test system: HeLa cells; test: MTT cell viability assay, HeLa; type: cell-based; conditions: Homo sapiens, 48 h, read-out: Half inhibitory concentration (IC50), HeLa
Description: as §1, §2

[5] = test system: HepG2 cells; test: MTT cell viability assay, HepG2; type: cell-based; conditions: Homo sapiens, 48 h, read-out: Half inhibitory concentration (IC50), HepG2
Description: as §1, §2

[6] = test system: 7402 cells; test: MTT cell viability assay, 7402; type: cell-based; conditions: Homo sapiens, 48 h, read-out: Half inhibitory concentration (IC50), 7402
Description: as §1, §2

[7] = test system: LO2 cells; test: MTT cell viability assay, normal liver LO2; type: cell-based, human; conditions: Homo sapiens, L02, normal liver LO2 cells, 48 h, read-out: Half inhibitory concentration (IC50), LO2
Description: as §1
Cell viability was measured by a 3-(4,5-dimethylthiazol-2-yl)-2,5-diphenyltetrazolium bromide (MTT, MultiSciences, China) assay. The specific experimental steps referred to our previous research ([Zhu et al., 2020]). For each cell line, cells were digested and seeded in 96-well plates at a density of 1 × 10^3 cells/well. After 24 h of culture, the cells were adherent and treated with varying concentrations of RPDPRH (0, 3.125, 6.25, 12.5, 25, 50, and 100 μM). Cells without treatment were used as a solvent control group (0 μM, DMSO) and those with cisplatin treatment served as a positive control. After 48 h of treatment, MTT solution was added and incubated for 4 h. Then, the formed formazan crystals were dissolved in DMSO, and the plates were estimated in a […] microplate reader (BioTek Inc., Bio-Tek MQX200) at a wavelength of 490 nm. Optical density (OD) values were obtained, and the inhibition rate and IC50 of each compound on different cells were calculated by GraphPad Prism 8.0.1 software. Cell inhibition rate (%) = 1− [(OD experimental-OD blank)/(OD control-OD blank)] × 100%.

[8] = test system: C-33A cells; parameters: method as in Kong et al., 2021; conditions: MTT, ref Kong et al., 2021, read-out: Half inhibitory concentration (IC50), C-33A; cited from earlier work
[9] = test system: CaSki cells; parameters: method as in Kong et al., 2021; conditions: MTT, ref Kong et al., 2021, read-out: Half inhibitory concentration (IC50), CaSki; cited from earlier work
[10] = test system: SiHa cells; parameters: method as in Kong et al., 2021; conditions: MTT, ref Kong et al., 2021, read-out: Half inhibitory concentration (IC50), SiHa; cited from earlier work
[11] = test system: HeLa cells; parameters: method as in Kong et al., 2021; conditions: MTT, ref Kong et al., 2021, read-out: Half inhibitory concentration (IC50), HeLa; cited from earlier work
[12] = test system: HepG2 cells; parameters: method as in Kong et al., 2021; conditions: MTT, ref Kong et al., 2021, read-out: Half inhibitory concentration (IC50), HepG2; cited from earlier work
[13] = test system: 7402 cells; parameters: method as in Kong et al., 2021; conditions: MTT, ref Kong et al., 2021, read-out: Half inhibitory concentration (IC50), 7402; cited from earlier work
[14] = test system: LO2 cells; parameters: method as in Kong et al., 2021; conditions: normal liver LO2 cells, MTT; ref Kong et al., 2021; read-out: Half inhibitory concentration (IC50), LO2; cited from earlier work

Structure (SMILES)	IC50 [1] [µM]	IC50 [2] [µM]	IC50 [3] [µM]	IC50 [4] [µM]	IC50 [5] [µM]	IC50 [6] [µM]	IC50 [7] [µM]	melting point [°C]	IC50 [8] [µM]	IC50 [9] [µM]	IC50 [10] [µM]	IC50 [11] [µM]	IC50 [12] [µM]	IC50 [13] [µM]	IC50 [14] [µM]
O=C1/C(=C/c2ccccc2)CC(/C=C/c2ccccc2)(C(=O)NC2CCCCC2)N1c1ccc(Cl)cc1 (stereo not drawn) [RPDPRI, (2E, 4E)-4-benzylidene-1-(4-chlorophenyl)-N-cyclohexyl-5-oxo-2-styrylpyrrolidine-2-carboxamide]	> 100	> 100	> 100	> 100	> 100	> 100	> 100	209 to 210							
O=C1/C(=C/c2ccccc2)CC(/C=C/c2ccc(Cl)cc2)(C(=O)NC2CCCCC2)N1c1ccc(F)cc1 (stereo not drawn) [RPDPRO, (2E, 4E)-2-(4-chlorostyryl)-4-benzylidene-N-cyclohexyl-1-(4-fluorophenyl)-5-oxopyrrolidine-2-carboxamide]								142 to 144	5.56	9.15	12.5	21.4	14.5	31.2	86.8
N.N.[Cl][Pt][Cl] [Cisplatin, cisplatin, reference compound]									48.2	17.5	37.1	47.5	19.3	48.5	17.3
O=C1/C(=C/c2ccc(Cl)cc2)CC(/C=C/c2ccccc2)(C(=O)NC2CCCCC2)N1c1ccc(Cl)cc1 (stereo not drawn) [RPDPRK, (2E, 4E)-4-(4-chlorobenzylidene)-1-(4-chlorophenyl)-N-cyclohexyl-5-oxo-2-styryl pyrrolidine-2-carboxamide]	89.5	46.4	67.3	44.7	> 100	> 100	> 100								
